Laboratory results: patent publication US20040043959A1, “Combination therapies for treating methylthioadenosine phosphorylase deficient cells” (priority 2002, published 2004)

Molecular target: T1, Human MTAP (Homo sapiens, UniProt Q13126)
T1 construct: six-histidine tag (His6) (N); made in house; host or cells: E. coli BL21 DE3
T1 sequence (Q13126 1-283): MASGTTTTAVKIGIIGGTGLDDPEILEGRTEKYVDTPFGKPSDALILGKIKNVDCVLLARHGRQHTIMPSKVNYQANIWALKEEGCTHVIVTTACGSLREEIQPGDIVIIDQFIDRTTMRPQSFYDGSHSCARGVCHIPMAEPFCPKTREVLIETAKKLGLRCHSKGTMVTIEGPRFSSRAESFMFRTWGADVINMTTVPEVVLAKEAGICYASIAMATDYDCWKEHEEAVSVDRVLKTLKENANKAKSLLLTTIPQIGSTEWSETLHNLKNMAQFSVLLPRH
Experiment: MTAP substrate assay, coupled spectrophotometric (adenine, xanthine oxidase)
Assay type: biochemical
Settings: 2 nM MTAP; for activity at 50 µM: 10 min, compound 50 uM, relative to MTA at 50 uM, read-out: MT-A—50: initial velocity as a percentage of the initial velocity with MTA as substrate; for MT-A—10: initial velocity as a percentage of the initial velocity with MTA as substrate: compound 10 uM, relative to MTA at 10 uM
Method in brief: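 Detection was xanthine oxidase-coupled (0.8 units/ml), reading adenine-derived absorbance at 305 nm over 10 min in potassium phosphate/DTT buffer at 37° C, with N-His6 enzyme purified from E. coli.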

Row | Compound | activity at 50 µM [%] | MT-A—10: initial velocity as a percentage of the initial velocity with MTA as substrate [%]
1 | Nc1ncnc2c1ncn2[C@@H]1O[C@H](CSc2cccc(F)c2)[C@@H](O)[C@H]1O [2(G)(147), (2R, 3R, 4S, 5S)-2-(6-amino-9H-purin-9-yl)-5-{[(3-fluorophenyl)-thio]methyl}tetrahydro-furan-3,4-diol] | 25.5 | 18.5
2 | Cc1cc(C)cc(SC[C@H]2O[C@@H](n3cnc4c(N)ncnc43)[C@H](O)[C@@H]2O)c1 [2(G)(148), (2R, 3R, 4S, 5S)-2-(6-amino-9H-purin-9-yl)-5-{[(3,5-dimethylphenyl)-thio]methyl}tetrahydro-furan-3,4-diol] | 15 | 2
3 | Cc1ccc(SC[C@H]2O[C@@H](n3cnc4c(N)ncnc43)[C@H](O)[C@@H]2O)c(C)c1 [2(G)(149), (2R, 3R, 4S, 5S)-2-(6-amino-9H-purin-9-yl)-5-{[(2,4-dimethylphenyl)-thio]methyl}tetrahydro-furan-3,4-diol] | 2.5 | 35.5
4 | Cc1ccc(SC[C@H]2O[C@@H](n3cnc4c(N)ncnc43)[C@H](O)[C@@H]2O)cc1C [2(G)(150), (2R, 3R, 4S, 5S)-2-(6-amino-9H-purin-9-yl)-5-{[(3,4-dimethylphenyl)-thio]methyl}tetrahydro-furan-3,4-diol] | 33.5 | 2
5 | Nc1ncnc2c1ncn2[C@@H]1O[C@H](CSc2cccc(Cl)c2Cl)[C@@H](O)[C@H]1O [2(G)(151), (2R, 3R, 4S, 5S)-2-(6-amino-9H-purin-9-yl)-5-{[(2,3-dichlorophenyl)-thio]methyl}tetrahydro-furan-3,4-diol] | 2 | 13.5
6 | CSc1nsc(SC[C@H]2O[C@@H](n3cnc4c(N)ncnc43)[C@H](O)[C@@H]2O)n1 [2(G)(152), (2R, 3R, 4S, 5S)-2-(6-amino-9H-purin-9-yl)-5-({[3-(methylthio)-1,2,4-thiodiazol-5-yl)-thio}methyl)tetrahydro-furan-3,4-diol] | 17 | 19.5
7 | Nc1ncnc2c1ncn2[C@@H]1O[C@H](CSc2nc3ccc(Cl)cc3o2)[C@@H](O)[C@H]1O [2(G)(153), (2R, 3R, 4S, 5S)-2-(6-amino-9H-purin-9-yl)-5-{[(6-chloro-1,3-benz-oxazol-2-yl)thio]methyl}tetrahydrofuran-3,4-diol] | 22.5 | 10
8 | Cc1cc(C)nc(SC[C@H]2O[C@@H](n3cnc4c(N)ncnc43)[C@H](O)[C@@H]2O)n1 [2(G)(154), (2R, 3R, 4S, 5S)-2-(6-amino-9H-purin-9-yl)-5-{[(4,6-dimethyl-pyrimidin-2-yl)thio]methyl}tetrahydrofuran-3,4-diol] | 26 | 39
9 | Cc1cnc(SC[C@H]2O[C@@H](n3cnc4c(N)ncnc43)[C@H](O)[C@@H]2O)nc1O [2(G)(155), (2R, 3R, 4S, 5S)-2-(6-amino-9H-purin-9-yl)-5-{[(4-hydroxy-5-methyl-pyrimidin-2-yl)thio]-methyl}tetrahydrofuran-3,4-diol] | 39 | 22.5
10 | CC(SC[C@H]1O[C@@H](n2cnc3c(N)ncnc32)[C@H](O)[C@@H]1O)c1ccccc1 (stereo partly drawn) [2(G)(156), (2R, 3R, 4S, 5S)-2-(6-amino-9H-purin-9-yl)-5-{[(1-phenylethyl)thio]-methyl}tetrahydrofuran-3,4-diol] | 33 | 6
11 | Nc1ncnc2c1ncn2[C@@H]1O[C@H](CSc2ccccc2CO)[C@@H](O)[C@H]1O [2(G)(157), (2R, 3R, 4S, 5S)-2-(6-amino-9H-purin-9-yl)-5-({[2-(hydroxymethyl)-phenyl]thio}methyl)tetra-hydrofuran-3,4-diol] | 15.5 | 32.5
12 | Cc1nc(SC[C@H]2O[C@@H](n3cnc4c(N)ncnc43)[C@H](O)[C@@H]2O)nc(O)c1C [2(G)(158), (2R, 3R, 4S, 5S)-2-(6-amino-9H-purin-9-yl)-5-{[(4-hydroxy-5,6-dimethylpyrimidin-2-yl)-thio]methyl}tetrahydro-furan-3,4-diol] | 43.5 | 7
13 | NC(=O)CSC[C@H]1O[C@@H](n2cnc3c(N)ncnc32)[C@H](O)[C@@H]1O [2(G)(159), 2-({[(2S, 3S, 4R, 5R)-5-(6-amino-9H-purin-9-yl)-3,4-dihydroxytetrahydro-furan-2-yl)methyl}thio)-acetamide] | 28 | 7.5
14 | Nc1ncnc2c1ncn2[C@@H]1O[C@H](CSc2nccn2Cc2ccccc2)[C@@H](O)[C@H]1O [2(G)(160), (2R, 3R, 4S, 5S)-2-(6-amino-9H-purin-9-yl)-5-{[(1-benzyl-1H-imidazol-2-yl)thio]methyl}tetra-hydrofuran-3,4-diol] | 17 | 12
15 | CNC(=O)c1ccccc1SC[C@H]1O[C@@H](n2cnc3c(N)ncnc32)[C@H](O)[C@@H]1O [2(G)(161), 2-({[(2S, 3S, 4R, 5R)-5-(6-amino-9H-purin-9-yl)-3,4-dihydroxytetrahydro-furan-2-yl]methyl}thio)-N-methylbenzamide] | 28 | 14.5
16 | CCCc1cc(O)nc(SC[C@H]2O[C@@H](n3cnc4c(N)ncnc43)[C@H](O)[C@@H]2O)n1 [2(G)(162), (2R, 3R, 4S, 5S)-2-(6-amino-9H-purin-9-yl)-5-{[(4-hydroxy-6-propylpyrimidin-2-yl)-thio]methyl}tetrahydro-furan-3,4-diol] | 39.5 | 29
17 | Nc1ncnc2c1ncn2[C@@H]1O[C@H](CSc2nc3cc(Cl)ccc3o2)[C@@H](O)[C@H]1O [2(G)(163), (2R, 3R, 4S, 5S)-2-(6-amino-9H-purin-9-yl)-5-{[(5-chloro-1,3-benz-oxazol-2-yl)thio]methyl}-tetrahydrofuran-3,4-diol] | 26.5 | 12
18 | COC(=O)c1cnc(SC[C@H]2O[C@@H](n3cnc4c(N)ncnc43)[C@H](O)[C@@H]2O)n1C [2(G)(164), Methyl 2-({[(2S, 3S, 4R, 5R)-5-(6-amino-9H-purin-9-yl)-3,4-dihydroxy-tetrahydrofuran-2-yl]methyl}thio)-1-methyl-1H-imidazole-5-carboxylate] | 29 | 13.5
19 | CC(C)(C)c1cc(O)nc(SC[C@H]2O[C@@H](n3cnc4c(N)ncnc43)[C@H](O)[C@@H]2O)n1 [2(G)(165), (2R, 3R, 4S, 5S)-2-(6-amino-9H-purin-9-yl)-5-{[(4-tert-butyl-6-hydroxypyrimidin-2-yl)thio]methyl}tetrahydro-furan-3,4-diol] | 33.5 | 25
